Values after ≈ are worked out from the molar mass of the structure shown. Read-outs that look alike come from different tables or passages of the source.
Key:
[1] = Brain penetration (brain to plasma ratio); type: in vivo
TRK-A = TRK-A (Homo sapiens (Human), UniProt P04629); assay: In vitro kinase activity inhibition assay (Caliper), TRK-A; type: biochemical
Description: (§1) (a) An In Vitro Assay which Determines the Ability of a Test Compound to Inhibit Kinase Activity
(§2) I. Prepare 1× Kinase Base Buffer and Stop Buffer for Testing Kinases
1) 1× Kinase base buffer (for TRK-A)
(§3) II. Prepare Source Plate with Compound
(§4) 1) Dilute the compound to 50× of the final concentration in reaction by 100% DMSO. Transfer 100 μl of this compound dilution to a well in a 96-well plate. For example, if the desired highest inhibitor concentration is 10 μM, then prepare a 500 μM of compound DMSO solution in this step.
(§5) 2) Perform 3× series dilution of the compound dilution obtained in step 1) with 100% DMSO to provide 9 more diluted solutions of the compound.
(§6) 3) Add 100 μl of 100% DMSO to two empty wells for no compound control and no enzyme control in the same 96-well plate. Mark the plate as source plate.
(§7) 4) Prepare intermediate plate
(§8) Transfer 10 μl of compound from the source plate to a new 96-well plate as the intermediate plate.
(§9) Add 90 μl of 1× Kinase base buffer to each well of the intermediate plate.
(§10) Mix the compounds in intermediate plate for […] on a shaker.
Transfer 5 μl of each well from the 96-well intermediate plate to a 384-well plate in duplicates. For example, A1 of the 96-well plate is transferred to A1 and A2 of the 384-well plate. A2 of the 96-well plate is transferred to A3 and A4 of the 384-well plate, and so on. […]

TEL-NTRK1-BaF3 cell = TEL-NTRK1-BaF3 cell assay (CellTiter-Glo viability, 72 hours); type: cell-based
Description: (b) A Representative Number of Compounds were Assayed Against TEL-NTRK1-BaF3 Cell.
I. Prepare Compound Plate
Compounds to be assayed were dissolved in 100% DMSO to prepare a […] mother solution, which underwent 3× series dilution to prepare solutions with concentrations of 10 mM, 3.333 mM, 1.111 mM, 0.370 mM, 0.123 mM, 0.041 mM, 0.014 mM, all of which stored in 0.5 mL sterile eppendorf (Corning, N.Y., USA). At the same time prepare a blank sample as control containing DMSO only with the same volume as the compound solutions. The 9 samples on the Compound plate were store at −20° C. in vacuum.
II. Cell Culture Conditions
TEL-NTRK1-BaF3 cell line was cultured in RPMI 1640 (Corning, N.Y., USA)+10% fetal calf serum (Gibco/Invitrogen, USA) for two generations after resuscitation. Stored for future use.
III. Assay and Data Analysis
Cells (2,000-2,500 cells per well) at log phase were harvested and inoculated in wells of a white, opaque cell culture plate (Corning 3570, NY, USA). The volume of suspensions comprising cells in each well was 100 μL. Compounds from the Compound plate were added 0.1 μL per well to the cell culture plate to reach a final compound concentrations of 10 μM, 3.3 μM, 1.1 μM, 0.37 μM, 0.12 μM, 0.04 μM, and 0.014 μM. Incubated at 37° C. and 5% CO2 culture chamber for 72 hours. Ten μL CellTiter-Glo® Luminescent Cell Viability Assay Reagent was added to each well, wait for 10 minutes, then read using Evision Plate-Reader.
The following Table B lists compounds representative of the disclosure and their activity in TEL-NTRK1-BaF3 Cell assay.

[2] = Solubility measurement in pH 4.0 buffer (HPLC); type: physicochemical; settings: pH 4.0 buffer solution (20 mM), aqueous buffer, thermodynamic from solid; pH 4.0 buffer (20 mM), 25° C.
Description: (c) Solubility Measurement of a Representative Number of Compounds
Solubility measurement procedure may include:
Preparation of reference standard solution: 2 mg of the testing compound was added individually to 100 mL volumetric flask each. The compound was diluted with acetonitrile to 100 mL.
Preparation of sample solution: 2 mg of the testing compound was added individually to 2 mL eppendorf tube (EP), followed by the addition of 1 mL of pH 4.0 buffer solution (20 mM). The solution was shaken for 2 minutes and left for 30 minutes at 25° C. After standing for 30 minutes, precipitate was formed at the bottom of the EP. The solution was filtered through a 0.2 μm membrane filter, and then diluted by 50 times with water.
The standard and sample solutions were injected into the HPLC on a Shim-Pack CLC-ODS C18 column (150 mm×6.0 mm, Sum) with the same volume. The mobile phase consists of acetonitrile with 2% trichloromethane—20 mM KH2PO4 buffer (pH=7.0) at a flow rate of 1 mL/minutes (40:60). The detection wavelength was at 264 nm. Calculation: solubility of sample=the concentration of standard×Area of sample×50/Area of standard.
The following Table C lists solubility data for selected compounds.

ROS1 = ROS1 (Homo sapiens (Human), UniProt P08922); assay: In vitro kinase activity inhibition assay (Caliper), ROS1; type: biochemical; settings: read-out: ROS-1 IC50
Sequence of ROS1 (P08922 28-2347, species assumed): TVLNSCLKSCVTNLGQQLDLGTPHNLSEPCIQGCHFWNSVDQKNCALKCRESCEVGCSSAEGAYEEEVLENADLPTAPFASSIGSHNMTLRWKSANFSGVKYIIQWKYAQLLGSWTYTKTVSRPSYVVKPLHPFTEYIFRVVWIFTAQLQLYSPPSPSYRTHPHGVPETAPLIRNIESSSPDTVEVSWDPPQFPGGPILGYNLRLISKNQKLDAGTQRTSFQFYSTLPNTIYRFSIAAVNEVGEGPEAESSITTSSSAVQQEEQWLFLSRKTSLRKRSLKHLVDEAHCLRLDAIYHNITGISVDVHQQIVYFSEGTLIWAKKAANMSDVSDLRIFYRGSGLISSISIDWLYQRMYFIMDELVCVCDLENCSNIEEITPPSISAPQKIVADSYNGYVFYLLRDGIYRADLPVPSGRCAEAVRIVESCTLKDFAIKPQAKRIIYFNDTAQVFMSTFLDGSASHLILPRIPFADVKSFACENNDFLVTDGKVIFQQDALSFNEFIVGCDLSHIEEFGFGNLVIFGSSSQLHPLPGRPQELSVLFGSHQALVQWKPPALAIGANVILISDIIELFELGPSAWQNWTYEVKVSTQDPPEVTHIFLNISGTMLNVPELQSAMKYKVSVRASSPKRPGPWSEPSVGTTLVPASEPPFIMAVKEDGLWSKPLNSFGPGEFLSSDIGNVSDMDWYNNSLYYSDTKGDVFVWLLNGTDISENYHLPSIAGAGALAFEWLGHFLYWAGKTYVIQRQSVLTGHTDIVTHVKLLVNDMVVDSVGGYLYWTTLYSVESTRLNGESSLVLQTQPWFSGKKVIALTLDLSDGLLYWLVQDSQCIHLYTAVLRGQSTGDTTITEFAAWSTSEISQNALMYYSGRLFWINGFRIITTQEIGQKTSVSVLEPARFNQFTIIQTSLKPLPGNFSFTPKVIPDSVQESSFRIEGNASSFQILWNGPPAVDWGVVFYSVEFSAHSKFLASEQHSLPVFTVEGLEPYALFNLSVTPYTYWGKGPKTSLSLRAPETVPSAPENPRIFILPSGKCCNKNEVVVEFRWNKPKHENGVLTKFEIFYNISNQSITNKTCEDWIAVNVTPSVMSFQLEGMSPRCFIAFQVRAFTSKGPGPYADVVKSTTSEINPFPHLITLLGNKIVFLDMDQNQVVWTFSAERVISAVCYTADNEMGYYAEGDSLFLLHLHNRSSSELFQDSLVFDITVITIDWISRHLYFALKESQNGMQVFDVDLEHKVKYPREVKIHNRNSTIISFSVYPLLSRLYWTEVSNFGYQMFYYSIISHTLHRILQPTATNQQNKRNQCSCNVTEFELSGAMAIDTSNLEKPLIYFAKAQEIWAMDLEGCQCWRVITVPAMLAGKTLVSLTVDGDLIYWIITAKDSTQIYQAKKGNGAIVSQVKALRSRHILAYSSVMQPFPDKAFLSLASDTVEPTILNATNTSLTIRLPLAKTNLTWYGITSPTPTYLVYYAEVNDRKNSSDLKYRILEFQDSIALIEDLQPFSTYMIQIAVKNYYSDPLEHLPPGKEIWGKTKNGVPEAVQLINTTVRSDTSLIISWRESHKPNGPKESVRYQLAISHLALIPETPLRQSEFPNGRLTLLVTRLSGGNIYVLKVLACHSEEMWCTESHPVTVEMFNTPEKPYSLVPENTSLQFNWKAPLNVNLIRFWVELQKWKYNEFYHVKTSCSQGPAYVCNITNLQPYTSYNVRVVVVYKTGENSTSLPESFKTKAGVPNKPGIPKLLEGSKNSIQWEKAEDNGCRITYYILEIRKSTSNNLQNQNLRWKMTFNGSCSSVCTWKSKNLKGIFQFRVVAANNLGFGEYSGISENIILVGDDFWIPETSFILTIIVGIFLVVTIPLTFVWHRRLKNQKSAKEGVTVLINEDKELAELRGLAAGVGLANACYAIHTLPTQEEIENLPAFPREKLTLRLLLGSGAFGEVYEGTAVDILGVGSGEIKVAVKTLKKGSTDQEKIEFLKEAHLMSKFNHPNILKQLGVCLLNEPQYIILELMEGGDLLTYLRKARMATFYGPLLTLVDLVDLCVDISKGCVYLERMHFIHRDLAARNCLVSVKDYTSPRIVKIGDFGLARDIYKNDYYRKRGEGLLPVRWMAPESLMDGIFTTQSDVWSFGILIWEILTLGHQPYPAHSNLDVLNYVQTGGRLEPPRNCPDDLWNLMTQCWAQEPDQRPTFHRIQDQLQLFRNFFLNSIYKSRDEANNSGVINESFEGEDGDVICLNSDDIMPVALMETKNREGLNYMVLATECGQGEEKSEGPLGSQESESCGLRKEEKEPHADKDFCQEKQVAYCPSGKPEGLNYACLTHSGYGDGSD
Description: as §1, §2, §3, §4, §5, §6, §7, §8, §9, §10
Transfer 5 μl of each well from the 96-well intermediate plate to a 384-well plate in duplicates. For example, A1 of the 96-well plate is transferred to A1 and A2 of the 384-well plate. A2 of the 96-well plate is transferred to A3 and A4 of the 384-well plate, and so on.
1) Prepare 2.5× enzyme solution Add kinase in 1× kinase base buffer. […]

[3] = Pharmacokinetic study, IV and oral, bioavailability; type: in vivo; settings: plasma, oral; rat; 2 mg/kg IV, 5 mg/kg orally; read-out: F (%) oral bioavailability
Source text: (d) Pharmacokinetic Study of a Representative Number of Compounds A representative protocol for the PK (pharmacokinetic) assay was as followed: Compounds were given either IV or orally to the same animals. […] Analysis: LC-MS/MS was used to calculate PK parameters: t1/2, tmax, Cmax, Vss and AUC, etc. The following TABLE D lists selected compounds and their bioavailability.

[4] = One-month toxicity study in rat; type: in vivo; settings: 30 mg/kg and 100 mg/kg, end of administration and recovery periods
Description: A representative number of compounds, including Compound 1 (LOXO-101) and Compound 3, were tested in a typical one-month toxicity studies in rat with dosages of 30 mg/kg and 100 mg/kg.

Sequence of TRK-A (P04629 33-796, species assumed): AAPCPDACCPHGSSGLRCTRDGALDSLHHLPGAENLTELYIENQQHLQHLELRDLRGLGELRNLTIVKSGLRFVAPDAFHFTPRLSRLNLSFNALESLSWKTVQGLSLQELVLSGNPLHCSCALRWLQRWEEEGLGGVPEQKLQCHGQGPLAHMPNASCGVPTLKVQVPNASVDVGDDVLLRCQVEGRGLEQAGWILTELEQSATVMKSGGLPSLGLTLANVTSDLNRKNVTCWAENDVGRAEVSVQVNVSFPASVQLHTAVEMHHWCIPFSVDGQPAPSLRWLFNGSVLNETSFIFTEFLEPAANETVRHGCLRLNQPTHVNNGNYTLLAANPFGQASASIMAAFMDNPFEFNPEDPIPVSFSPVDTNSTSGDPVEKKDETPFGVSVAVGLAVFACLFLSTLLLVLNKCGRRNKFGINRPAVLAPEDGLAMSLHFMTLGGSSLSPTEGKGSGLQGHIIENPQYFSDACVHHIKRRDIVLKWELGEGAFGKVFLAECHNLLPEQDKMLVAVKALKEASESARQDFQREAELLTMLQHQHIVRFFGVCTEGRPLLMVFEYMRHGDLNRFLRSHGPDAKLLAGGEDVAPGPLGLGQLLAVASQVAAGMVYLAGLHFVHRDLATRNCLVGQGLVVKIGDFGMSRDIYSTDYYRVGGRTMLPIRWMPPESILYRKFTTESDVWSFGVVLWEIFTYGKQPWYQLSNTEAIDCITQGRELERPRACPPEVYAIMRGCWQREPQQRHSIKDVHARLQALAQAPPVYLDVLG

Kp ([1]; brain) | IC50 (TRK-A) [nM] | GI50 (TEL-NTRK1-BaF3 cell) [nM] | solubility [2] [µg/mL] | IC50 (ROS1) [nM] | bioavailability [3] [%] | brain penetration ([1]; in vivo) | GI50 (TEL-NTRK1-BaF3 cell; 72 h) [nM] | SMILES | #LYMPH and/or % LYMPH in blood [4] | #NEUT and/or % NEUT in blood [4]
5.47 | 3 | 3 | 36100 (≈ 67900 µM) | 104 | 56 |  |  | CN1CCN(Cc2ccc(C(=O)Nc3cnn4ccc(N5CCC[C@@H]5c5cc(F)ccc5F)nc34)cc2)CC1 [Compound 3] |  | 
 | 1.8 | < 1 |  |  |  |  |  | CN1CCN(Cc2ccc(C(=O)Nc3cnn4ccc(N5CCC[C@@H]5c5cc(F)ccc5F)nc34)cc2)CC1 [Compound 2] |  | 
 |  |  | 310 (≈ 724 µM) |  | 33 | low brain penetration | 25 | O=C(Nc1cnn2ccc(N3CCC[C@@H]3c3cc(F)ccc3F)nc12)N1CC[C@H](O)C1 [Compound 1, reference compound] | slight decrease | slight increase trend
 |  |  | 310 (≈ 589 µM) |  |  |  | 24 | CCS(=O)(=O)Nc1ccc(C(=O)Nc2cnn3ccc(N4CCC[C@@H]4c4cc(F)ccc4F)nc23)cc1 [Compound 4] |  | 
